The first assay deals with T1, Endothelial lipase (EL) (Homo sapiens, UniProt Q9Y5X9).
T1 construct: HT-1080 cells, which were transformed by RAGE technology (Athersys) to overexpress endogenous EL; endogenous in cells; conditioned medium used as the enzyme source
T1 sequence (Q9Y5X9 21-500): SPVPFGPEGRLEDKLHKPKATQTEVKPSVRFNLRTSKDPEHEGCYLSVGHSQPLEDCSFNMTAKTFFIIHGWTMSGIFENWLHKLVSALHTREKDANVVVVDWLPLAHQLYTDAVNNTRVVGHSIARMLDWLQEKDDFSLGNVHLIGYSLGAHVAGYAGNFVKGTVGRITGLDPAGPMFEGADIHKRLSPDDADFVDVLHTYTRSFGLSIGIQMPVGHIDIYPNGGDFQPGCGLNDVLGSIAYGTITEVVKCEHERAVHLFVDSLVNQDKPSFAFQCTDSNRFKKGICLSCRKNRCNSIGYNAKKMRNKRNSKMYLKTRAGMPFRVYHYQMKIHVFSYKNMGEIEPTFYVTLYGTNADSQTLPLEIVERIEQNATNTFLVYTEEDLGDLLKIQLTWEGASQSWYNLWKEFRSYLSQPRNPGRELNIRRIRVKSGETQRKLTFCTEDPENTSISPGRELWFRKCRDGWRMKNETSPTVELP
Briefly: Endothelial lipase (EL) enzymatic assay with fluorescent substrate A10070 in DMPG vesicles. Conditions: conditioned media from HT-1080 cells overexpressing endogenous EL; 20 min preincubation at 37° C.; read-out: EL IC50. The format is biochemical. The procedure:
Endothelial lipase activity was measured using a fluorescent substrate, A10070, (Invitrogen, CA) doped into an artificial vesicle containing DMPG (Avanti Polar Lipids) as the excipient. Vesicles were prepared by combining 285 μL of 1 mM DMPG in a 1:1 mixture of MeOH and CHCl3 with 15 μL of 1 mM A10070 in a 1:1 mixture of MeOH and CHCl3. The mixture was dried under nitrogen and resuspended in 150 μL of 50 mM HEPES pH 8.0 buffer containing 100 mM NaCl and 0.2 mM EDTA. The sample was allowed to sit at rt for 15 min and then was sonicated 3×4 mins on ice with a Branson Sonicator using duty cycle 1. This preparation provides vesicles with a mole fraction of 0.05 for the FRET substrate.
The enzymatic assay was measured using white, opaque 96-well half area plates. Each well contained 60 μL of assay buffer (50 mM HEPES pH 8.0, 50 mM NaCl and 1 mM CaCl2) and 2 ul of a DMSO solution containing compound of interest. Conditioned media obtained from HT-1080 cells, which were transformed by RAGE technology (Athersys) to overexpress endogenous EL, was added and the reaction was allowed to incubate for 20 min at 37° C. with gentle agitation. The reaction was started by the addition of 20 μL of a 1:4 dilution of vesicles. The final total reaction volume was 100 μL. The reaction rates were measured on a Gemini plate reader with an excitation wavelength of 488 nm and an emission of 530 nm. Readings were taken every 20 seconds for 10 min with agitation between each reading. The slope of the linear portion of the readout was used to calculate the rate of the reaction.
In general, IC50 refers to the concentration at which inhibition is half-maximal. `CCOC(=O)N1CCC(NC(=O)c2[nH]c(=O)[nH]c(=O)c2N)c2ccccc21` (racemic) [Example 25, ethyl 4-(5-amino-2,6-dioxo-1,2,3,6-tetrahydropyrimidine-4-carboxamido)-3,4-dihydroqiiinoline-1(2H)-carboxylate]: the concentration for half-maximal inhibition (IC50) is 1.06 µM.

In the case of `O=C(NC1CCCC(c2cnn(Cc3ccccc3)c2)C1)c1[nH]c(=O)[nH]c(=O)c1O` (racemic) [Example 289, N-(3-(1-benzyl-1H-pyrazol-4-yl)cyclohexyl)-5-hydroxy-2,6-dioxo-1,2,3,6-tetrahydropyrimidine-4-carboxamide], the 50% inhibitory concentration (IC50) was 0.01 µM.

As to `COc1ccc2c(c1)C(NC(=O)c1[nH]c(=O)[nH]c(=O)c1N)CC2` (single isomer, unassigned) [Example 72, 5-amino-N-(6-methoxy-2,3-dihydro-1H-inden-1-yl)-2,6-dioxo-1,2,3,6-tetrahydropyrimidine-4-carboxamide], the IC50 was determined as 22.2 µM.

Turning to `COc1ccc2c(c1)C(NC(=O)c1[nH]c(=O)[nH]c(=O)c1N)CC2` (single isomer, unassigned) [Example 73, 5-amino-N-(6-methoxy-2,3-dihydro-1H-inden-1-yl)-2,6-dioxo-1,2,3,6-tetrahydropyrimidine-4-carboxamide], the IC50 came out at 0.468 µM.

`Cc1nc(-c2ccccc2)sc1-c1ccc([C@@H]2CC[C@H](NC(=O)c3[nH]c(=O)[nH]c(=O)c3N)C2)cc1` (stereo in doubt) [Example 171, 5-amino-N-((1S,3R)-3-(4-(4-methyl-2-phenylthiazol-5-yl)phenyl)cyclopentyl)-2,6-dioxo-1,2,3,6-tetrahydropyrimidine-4-carboxamide]: the IC50 came out at 1.48 µM.

The same assay, now with this note: range observed in the EL assay; read-out: EL IC50 values.
`Nc1c(C(=O)N[C@H]2C[C@@H](c3ccccc3)c3ccccc32)[nH]c(=O)[nH]c1=O` (racemic) [Example 18, 5-amino-2,6-dioxo-N-(cis-3-phenyl-2,3-dihydro-1H-inden-1-yl)-1,2,3,6-tetrahydropyrimidine-4-carboxamide]: the IC50 was not above 10 µM.

As to `CCOC(=O)N1CCC(NC(=O)c2[nH]c(=O)[nH]c(=O)c2N)c2ccccc21` (racemic) [Example 25, ethyl 4-(5-amino-2,6-dioxo-1,2,3,6-tetrahydropyrimidine-4-carboxamido)-3,4-dihydroqiiinoline-1(2H)-carboxylate], the IC50 is not above 10 µM.

On to `O=C(NC1CCCC(c2cnn(Cc3ccccc3)c2)C1)c1[nH]c(=O)[nH]c(=O)c1O` (racemic) [Example 289, N-(3-(1-benzyl-1H-pyrazol-4-yl)cyclohexyl)-5-hydroxy-2,6-dioxo-1,2,3,6-tetrahydropyrimidine-4-carboxamide], for which the IC50 was not above 10 µM.

With `Nc1c(C(=O)N[C@@H]2CCC(c3ccc(Cl)c(Cl)c3)c3ccccc32)[nH]c(=O)[nH]c1=O` (single isomer, unassigned) [Example 37], the IC50 was not above 10 µM.

As to `COc1ccc2c(c1)C(NC(=O)c1[nH]c(=O)[nH]c(=O)c1N)CC2` (single isomer, unassigned) [Example 73, 5-amino-N-(6-methoxy-2,3-dihydro-1H-inden-1-yl)-2,6-dioxo-1,2,3,6-tetrahydropyrimidine-4-carboxamide], the IC50 is not above 10 µM.

On to `Nc1c(C(=O)NC2CCCC(c3ccccc3)C2)[nH]c(=O)[nH]c1=O` (single isomer, unassigned) [Example 100, 5-amino-2,6-dioxo-N-(3-phenylcyclohexyl)-1,2,3,6-tetrahydropyrimidine-4-carboxamide], for which the 50% inhibitory concentration (IC50) was not above 10 µM.

Take `Nc1c(C(=O)NC2CCC(c3cnn(Cc4ccccc4)c3)C2)[nH]c(=O)[nH]c1=O` (single isomer, unassigned) [Example 131, 5-amino-N-(3-(1-benzyl-1H-pyrazol-4-yl)cyclopentyl)-2,6-dioxo-1,2,3,6-tetrahydropyrimidine-4-carboxamide]: the half-maximal inhibitory concentration (IC50) is not above 10 µM.

With `Nc1c(C(=O)NC2CCC(c3ccc(OCc4ccccc4)cc3)C2)[nH]c(=O)[nH]c1=O` (single isomer, unassigned) [Example 151, 5-amino-N-(3-(4-(benzyloxy)phenyl)cyclopentyl)-2,6-dioxo-1,2,3,6-tetrahydropyrimidine-4-carboxamide], the IC50 is not above 10 µM.

`Nc1c(C(=O)NC2CCC(c3cccc(OCc4ccccc4)c3)C2)[nH]c(=O)[nH]c1=O` (single isomer, unassigned) [Example 155, 5-amino-N-(3-(3-(benzyloxy)phenyl)cyclopentyl)-2,6-dioxo-1,2,3,6-tetrahydropyrimidine-4 carboxamide]: the half-inhibitory concentration (IC50) was not above 10 µM.

Regarding `COc1ccc2c(c1)CCCC2NC(=O)c1[nH]c(=O)[nH]c(=O)c1N` (single isomer, unassigned; enantiomer a) [Example 194, 5-amino-N-(6-methoxy-1,2,3,4-tetrahydronaphthalen-1-yl)-2,6-dioxo-1,2,3,6-tetrahydropyrimidine-4-carboxamide (Enantiomer A)], the concentration for half-maximal inhibition (IC50) was not above 10 µM.

Take `COc1cccc2c1CCCC2NC(=O)c1[nH]c(=O)[nH]c(=O)c1N` (single isomer, unassigned; enantiomer a) [Example 198, 5-amino-N-(5-methoxy-1,2,3,4-tetrahydronaphthalen-1-yl)-2,6-dioxo 1,2,3,6-tetrahydropyrimidine-4-carboxamide (Enantiomer A)]: the 50% inhibitory concentration (IC50) is not above 10 µM.

On to `COc1cccc2c1C(NC(=O)c1[nH]c(=O)[nH]c(=O)c1N)CCC2` (single isomer, unassigned; enantiomer a) [Example 201, 5-amino-N-(8-methoxy-1,2,3,4-tetrahydronaphthalen-1-yl)-2,6-dioxo 1,2,3,6-tetrahydropyrimidine-4-carboxamide (Enantiomer A)], for which the 50% inhibitory concentration (IC50) is not above 10 µM.

`CCOC(=O)N1CCC(NC(=O)c2[nH]c(=O)[nH]c(=O)c2N)c2ccccc21` (single isomer, unassigned; enantiomer b) [Example 193, Ethyl 4-(5-amino-2,6-dioxo-1,2,3,6-tetrahydropyrimidine-4-carboxamido)-3,4-dihydroquinoline-1(2H)-carboxylate (Enantiomer B)]: the 50% inhibitory concentration (IC50) was not above 10 µM.

`CS(=O)(=O)N1CCC(NC(=O)c2[nH]c(=O)[nH]c(=O)c2N)c2ccccc21` (single isomer, unassigned; enantiomer b) [Example 196, 5-amino-N-(1-(methylsulfonyl)-1,2,3,4-tetrahydroquinolin-4-yl)-2,6-dioxo-1,2,3,6-tetrahydropyrimidine-4-carboxamide (Enantiomer B)]: the IC50 was not above 10 µM.

As for `Nc1c(C(=O)NC2CCOc3ccccc32)[nH]c(=O)[nH]c1=O` (single isomer, unassigned; enantiomer b) [Example 197, 5-amino-N-(chroman-4-yl)-2,6-dioxo-1,2,3,6-tetrahydropyrimidine-4-carboxamide (Enantiomer B)], the half-maximal inhibitory concentration (IC50) is not above 10 µM.

Turning to `COc1ccc2c(c1)C(NC(=O)c1[nH]c(=O)[nH]c(=O)c1N)CCC2` (single isomer, unassigned; enantiomer b) [Example 200, 5-amino-N-(7-methoxy-1,2,3,4-tetrahydronaphthalen-1-yl)-2,6-dioxo 1,2,3,6-tetrahydropyrimidine-4-carboxamide (Enantiomer B)], the half-maximal inhibitory concentration (IC50) was not above 10 µM.

In the case of `Nc1c(C(=O)N[C@@H]2CC(c3ccccc3)c3ccccc32)[nH]c(=O)[nH]c1=O` (stereo in doubt) [Example 29, 5-amino-2,6-dioxo-N-((1R,3S)-3-phenyl-2,3-dihydro-1H-inden-1-yl)-1,2,3,6-tetrahydropyrimidine-4-carboxamide], the IC50 is not above 10 µM.

For the molecule `Cc1nc(-c2ccccc2)sc1-c1ccc([C@@H]2CC[C@H](NC(=O)c3[nH]c(=O)[nH]c(=O)c3N)C2)cc1` (stereo in doubt) [Example 171, 5-amino-N-((1S,3R)-3-(4-(4-methyl-2-phenylthiazol-5-yl)phenyl)cyclopentyl)-2,6-dioxo-1,2,3,6-tetrahydropyrimidine-4-carboxamide], the half-maximal inhibitory concentration (IC50) was not above 10 µM.

Regarding `Nc1c(C(=O)N[C@H]2CC[C@@H](c3ccc(-c4cnn(Cc5ccccc5)c4)cc3)C2)[nH]c(=O)[nH]c1=O` (stereo in doubt) [Example 179, 5-amino-N-((1S,3R)-3-(4-(1-benzyl-1H-pyrazol-4-yl)phenyl)cyclopentyl)-2,6-dioxo-1,2,3,6-tetrahydropyrimidine-4-carboxamide], the IC50 was not above 10 µM.

With `Nc1c(C(=O)N[C@@H]2CCc3ccc(C(F)(F)F)cc32)[nH]c(=O)[nH]c1=O` [Example 1, (R)-5-Amino-2,6-dioxo-N-(6-(trifluoromethyl)-2,3-dihydro-1H-inden-1-yl)-1,2,3,6-tetrahydropyrimidine-4-carboxamide], the IC50 is not above 10 µM.
